Data taken from PubChem BioAssay AID248 (DTP/NCI, 2004).
Several values for one entry are separate records, joined by “and”; a condition that tells them apart may be missing. Equal entries are not always repeated. Inconclusive results and toxic doses are left out.

System: L1210 leukemia ip in BDF1 mice, survival T/C
Assay: NCI In Vivo Anticancer Drug Screen. Data for tumor model L1210 Leukemia (intraperitoneal) in B6D2F1 (BDF1) mice
Details: endpoint: mean survival time, higher = longer survival
How it was run: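 In this screen, tumor-bearing mice given compound are compared to those given vehicle, and their survival values are reported as a treated-to-control quotient.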

[1] = dose: 100.0 mg/kg/injection, schedule: Q01DX009 (ip), vehicle: Klucel (hydroxypropylcellulose) (HPC)
[2] = dose: 200.0 mg/kg/injection, schedule: Q01DX009 (ip), vehicle: Klucel (hydroxypropylcellulose) (HPC)
[3] = dose: 400.0 mg/kg/injection, schedule: Q01DX009 (ip), vehicle: Klucel (hydroxypropylcellulose) (HPC)
[4] = dose: 100.0 mg/kg/injection, schedule: Q04DX003 (ip), vehicle: saline with Tween-80
[5] = dose: 200.0 mg/kg/injection, schedule: Q04DX003 (ip), vehicle: saline with Tween-80
[6] = dose: 400.0 mg/kg/injection, schedule: Q04DX003 (ip), vehicle: saline with Tween-80
[7] = dose: 100.0 mg/kg/injection, schedule: Q04DX002 (ip), vehicle: Klucel (hydroxypropylcellulose) (HPC)
[8] = dose: 200.0 mg/kg/injection, schedule: Q04DX002 (ip), vehicle: Klucel (hydroxypropylcellulose) (HPC)
[9] = dose: 400.0 mg/kg/injection, schedule: Q04DX002 (ip), vehicle: Klucel (hydroxypropylcellulose) (HPC)

`CN(C)C(=O)c1ccc(NC(=O)N(CCCl)N=O)cc1` was tested. Which T/C (dose: 0.5 mg/kg/injection, schedule: Q01DX001 (ip), vehicle: other) did it give?
Its T/C is 102 % of control.

What about the T/C (dose: 1.0 mg/kg/injection, schedule: Q01DX001 (ip), vehicle: other) of the same compound?
Its T/C is 120 % of control.

And the T/C (dose: 2.0 mg/kg/injection, schedule: Q01DX001 (ip), vehicle: other)?
Its T/C is 150 % of control.

What about the T/C (dose: 8.0 mg/kg/injection, schedule: Q01DX001 (ip), vehicle: other) of the same compound?
The T/C was 182 % of control.

And the T/C (dose: 16.0 mg/kg/injection, schedule: Q01DX001 (ip), vehicle: other)?
The T/C was 286 % of control.

What about the T/C (dose: 31.0 mg/kg/injection, schedule: Q01DX001 (ip), vehicle: other) of the same compound?
Its T/C is 88 % of control.

What does the source list for `CCOC(=O)c1ccc(NC(=O)Oc2ccccc2F)cc1`?
T/C [1]: 91 % of control; T/C [2]: 98 % of control; T/C [3]: 96 % of control

How did the T/C (dose: 18.75 mg/kg/injection, schedule: Q01DX001 (ip), vehicle: saline with Tween-80) turn out when `COc1cc2ccc3c4ccccc4c[n+](C)c3c2cc1OC` was run?
The T/C was 106 % of control.

And the T/C (dose: 37.5 mg/kg/injection, schedule: Q01DX001 (ip), vehicle: saline with Tween-80)?
Its T/C is 106 % of control.

And the T/C (dose: 75.0 mg/kg/injection, schedule: Q01DX001 (ip), vehicle: saline with Tween-80)?
The T/C was 113 % of control.

What does the source list for `CC(C)CCCBr`?
T/C (dose: 100.0 mg/kg/injection, schedule: Q01DX009 (ip), vehicle: saline with Tween-80): 101 % of control; T/C [4]: 94 % of control; T/C (dose: 200.0 mg/kg/injection, schedule: Q01DX009 (ip), vehicle: saline with Tween-80): 100 % of control; T/C [5]: 95 % of control; T/C (dose: 400.0 mg/kg/injection, schedule: Q01DX009 (ip), vehicle: saline with Tween-80): 94 % of control; T/C [6]: 99 % of control

Which results are given for `CC(C)CC(C=O)(CCN1CCCCC1)c1cccc2ccccc12` (stereo unspecified)?
T/C (dose: 100.0 mg/kg/injection, schedule: Q04DX002 (ip), vehicle: saline with Tween-80): 87 % of control and 88 % of control; T/C (dose: 100.0 mg/kg/injection, schedule: Q04DX002 (ip), vehicle: saline): 98 % of control; T/C (dose: 200.0 mg/kg/injection, schedule: Q04DX002 (ip), vehicle: saline with Tween-80): 94 % of control and 91 % of control; T/C (dose: 200.0 mg/kg/injection, schedule: Q04DX002 (ip), vehicle: saline): 91 % of control; T/C (dose: 400.0 mg/kg/injection, schedule: Q04DX002 (ip), vehicle: saline with Tween-80): 91 % of control

For `COc1ccc([N+](=O)[O-])c2c1CONC2c1c(CO)cnc(C)c1O` (stereo unspecified), which T/C (dose: 100.0 mg/kg/injection, schedule: Q04DX003 (ip), vehicle: acetone) is on record?
Its T/C is 90 % of control.

What about the T/C (dose: 200.0 mg/kg/injection, schedule: Q04DX003 (ip), vehicle: acetone) of the same compound?
The T/C was 96 % of control.

And the T/C (dose: 400.0 mg/kg/injection, schedule: Q04DX003 (ip), vehicle: acetone)?
The T/C was 89 % of control.

What does the source list for `NC(=S)N/N=C\C(=N/NC(N)=S)C(O)CO` (stereo unspecified)?
T/C (dose: 75.0 mg/kg/injection, schedule: Q01DX001 (ip), vehicle: saline): 97 % of control; T/C (dose: 150.0 mg/kg/injection, schedule: Q01DX001 (ip), vehicle: saline): 101 % of control

How did the T/C (dose: 5.0 mg/kg/injection, schedule: Q01DX001 (ip), vehicle: other) turn out when `[O-]c1n[n+](C2CCCCC2)no1` was run?
The T/C was 106 % of control.

And the T/C (dose: 10.0 mg/kg/injection, schedule: Q01DX001 (ip), vehicle: other)?
The T/C was 101 % of control.

With `CCn1c(C)nc2cc(N=Cc3ccc(N(CCCl)CCCl)cc3F)ccc21` as the compound, how does the T/C [7] read?
Its T/C is 95 % of control.

And the T/C [8]?
The T/C was 98 % of control.

And the T/C [9]?
Its T/C is 91 % of control.

Which results are given for `CC(=O)Nc1ccc(C)c2ccccc12`?
T/C (dose: 50.0 mg/kg/injection, schedule: Q04DX003 (ip), vehicle: saline with Tween-80): 116 % of control; T/C [4]: 100 % of control; T/C [5]: 100 % of control; T/C [6]: 96 % of control

Which results are given for `CCCCCCCCCCCCCCCCCCCC/C=C/C1CC(=O)OC1=O` (stereo unspecified)?
T/C [1]: 98 % of control; T/C (dose: 100.0 mg/kg/injection, schedule: Q04DX003 (ip), vehicle: Klucel (hydroxypropylcellulose) (HPC)): 95 % of control; T/C [2]: 96 % of control; T/C (dose: 200.0 mg/kg/injection, schedule: Q04DX003 (ip), vehicle: Klucel (hydroxypropylcellulose) (HPC)): 98 % of control; T/C [3]: 96 % of control; T/C (dose: 400.0 mg/kg/injection, schedule: Q04DX003 (ip), vehicle: Klucel (hydroxypropylcellulose) (HPC)): 113 % of control

What does the source list for `Cc1cccc(C)c1OC(=O)Nc1cccc(Cl)c1`?
T/C [7]: 114 % of control; T/C [8]: 105 % of control; T/C [9]: 105 % of control
